Experimental data as given in paper PMC5913971, “A Novel Piperazine-Based Drug Lead for Cryptosporidiosis from the Medicines for Malaria Venture Open-Access Malaria Box” (Antimicrobial Agents and Chemotherapy, 2018).
≈ marks a conversion by molar mass, not a printed value. Where two headings read alike, the source gives them in different places.

Legend:
C. hominis TU502 = experiment: Cryptosporidium hominis growth inhibition assay (1,536-well); type: cell-based; settings: HCT-8 cells, read-out: EC50 against C. hominis (isolate TU502)
Procedure: Cryptosporidium hominis growth inhibition assays were performed at the California Institute for Biomedical Research (Calibr), San Diego, CA, using a slightly modified immunofluorescence assay to enable automated compound handling and the use of 1,536-well microtiter plates ([19]). The HCT-8 culture medium was replaced with RPMI 1640 medium supplemented with 2% heat-inactivated horse serum, 100 U/ml penicillin, and […] streptomycin 24 h prior to infection with either C. hominis or the C. parvum Iowa isolate, used as a reference. […] Imaging was performed using a CellInsight CX5 High Content screening platform (Thermo Scientific) with a 10× objective and acquisition of one microscopic field per well. Images were processed using HCS Studio Scan software, and the selected-object count (HCT-8 cells) and spot count (C. hominis) were analyzed in Genedata Screener (version 13.0; Standard). Dose-response curves and EC values were calculated using the Smart Fit function of Genedata Analyzer.

C. parvum Iowa isolate [1] = experiment: NOD SCID gamma (NSG) mouse model of chronic cryptosporidiosis, fecal qPCR; type: in vivo, NOD SCID gamma mice
Procedure: All NOD SCID gamma mouse studies were performed in compliance with animal care guidelines and were approved by the University of Vermont Institutional Animal Care and Use Committee. NOD SCID gamma mice with normal flora (NOD.Cg-Prkdc^scid Il2rg^tm1Wjl/SzJ) ([38]) were purchased from The Jackson Laboratory (Bar Harbor, ME, USA) and were housed for at least a week for acclimatization. At the age of 4 to 5 weeks, mice were infected with 10^5 C. parvum Iowa isolate oocysts. Fecal oocyst shedding is detected 6 days after infection using a quantitative PCR (qPCR assay), so treatment was started on day 7 after infection. Mice (4 per experimental group) were treated either orally (p.o.) with MMV665917 at 30 or 60 mg/kg BID, intraperitoneally (i.p.) with MMV665917 at 60 mg/kg BID, or p.o. with 1,000 mg/kg paromomycin BID. MMV665917 was suspended in DMSO, sonicated three times, for 30 s each time, to obtain a fine suspension, aliquoted, and stored at −80°C for <10 days. On the day of treatment, aliquots of MMV665917 diluted in DMSO were thawed, mixed well using a vortexer, diluted with 1% HPMC, sonicated as before (three times for 30 s each time), mixed well, and given to mice either p.o. or by i.p. injection. A final concentration of 5% DMSO was used in 100 μl of 1% HPMC per dose. For the additional Malaria Box compounds and compound variants tested, the doses were prepared in the same way, and the specific dosages tested are given in Table S3 in the supplemental material. Mice were treated for either 4 or 7 days, allowed to recover for a week, and then sacrificed. Oocyst shedding in feces was monitored throughout by qPCR, including time points while on treatment and while monitoring for relapsed infection following completion of treatment in Fig. 2A.

C. parvum Iowa isolate [2] = experiment: IFN-γ knockout mouse model of acute cryptosporidiosis; type: in vivo, C57BL/6 IFN-γ−/− mice; settings: 30 mg/kg twice daily on days 4, 5, 6 postinfection
Procedure: All interferon gamma (IFN-γ) knockout mouse studies were performed in compliance with animal care guidelines and were approved by the Explora BioLabs (San Diego, CA) Institutional Animal Care and Use Committee. Four-week-old female C57BL/6 IFN-γ^−/− mice with normal flora were purchased from The Jackson Laboratory and were acclimated for 3 days prior to infection by oral gavage with 10^6 C. parvum Iowa isolate oocysts (Sterling Parasitology Laboratory, University of Arizona) suspended in sterile distilled water. At various times postinfection, mice were treated with the compound vehicle alone, clofazimine (used as a positive control), or MMV665917. As described previously, fecal parasite shedding was quantified at various times postinfection by isolating oocysts using a sucrose gradient centrifugation method ([39]), followed by staining for immunofluorescence microscopy using a fluorescein isothiocyanate-conjugated mouse anti-Cryptosporidium antibody (0.25 μg per sample) and analysis with a Guava easyCyte flow cytometer and CytoSoft data acquisition and analysis software (version 5.3; Guava Technologies, Inc.). Oocyst counts per milliliter of sample were exported to Excel (Microsoft Corp.) and were normalized to counts per milligram of feces. Final data analysis and graphing were carried out using GraphPad Prism software (version 6.01).

C. parvum = experiment: Parasite persistence (time-kill) assay in HCT-8 cells; type: cell-based, Cryptosporidium parvum
Procedure: Excysted C. parvum oocysts were added to >90% confluent HCT-8 cells in 384-well plates. […] At ∼24 h (i.e., the time of compound addition) and at various time intervals thereafter, parasites were washed, fixed, permeabilized, stained, and imaged as for the C. parvum growth assay. For the extended-compound-exposure experiments, the medium and compound were replaced every 3 days. A separate 384-well plate was used for each time interval. Parasite numbers were normalized to host cell nucleus numbers and are expressed as the percentage of parasites per host cell nucleus. In order to fit parasite decay curves, the effect of drugs was isolated from expected changes in parasite numbers over time by expressing the number of parasites as the percentage of the number of parasites with the control, dimethyl sulfoxide (DMSO), for each time point. Exponential decay curves were fit using GraphPad Prism software, version 6.01, and curve validity was assessed using the replicates test.

[3] = tested on: five mammalian cell lines; experiment: Toxicity profiling in mammalian cell lines; settings: based on previously reported toxicity profiling
[4] = design: method as in PMID 27467575; settings: single oral dose of 55 mg/kg; cited from earlier work
[5] = design: method as in PMID 27467575; settings: mouse; cited from earlier work
[6] = design: method as in PMID 27467575; settings: human; cited from earlier work
[7] = tested on: cytochrome P450 (CYP) isoforms (1A2, 2C9, 2C19, 2D6, 3A4-M, and 3A4-T); design: method as in PMID 27467575; settings: at 10 μM; cited from earlier work
[8] = design: method as in PMID 27467575; settings: pH 7.4; cited from earlier work
hERG = tested on: hERG; design: method as in PMID 27467575; settings: at 11 μM; cited from earlier work
zebrafish = tested on: zebrafish; design: method as in PMID 27467575; settings: cited from earlier work
[9] = tested on: 11 species of bacteria, 12 protozoa, and 7 helminths; design: method as in PMID 27467575; settings: cited from earlier work

O=C(Nc1ccc(Cl)cc1)N1CCN(c2ccc3nncn3n2)CC1 [MMV665917, Clc1ccc(NC(=O)N2CCN(CC2)c3ccc4nncn4n3)cc1]
EC50 (C. hominis TU502): 4.05 µM | reduction of oocyst shedding (C. parvum Iowa isolate [1]; 30 mg/kg orally twice daily, 7 days, from day 7 after infection): > 90% | efficacy, oral versus intraperitoneal dosing (C. parvum Iowa isolate [1]; 60 mg/kg BID p.o. or i.p., Fig. 4A): equally efficacious regardless of the route of administration | relapse after cessation of treatment (C. parvum Iowa isolate [1]; MMV665917 30 mg/kg orally twice daily, 7 days): relapsed | outcome after cessation of treatment (C. parvum Iowa isolate [1]; MMV665917 60 mg/kg orally twice daily, 7 days): apparently cured | NSG efficacy (C. parvum Iowa isolate [1]; dose 30 mg/kg, interval 12 h, duration 4 days): efficacious | efficacy in IFN-γ KO mouse model of acute infection (C. parvum Iowa isolate [2]): highly efficacious | concentration giving maximal rate of parasite elimination (C. parvum): 3 × EC90 | parasiticidal or parasitistatic for C. parvum (C. parvum): parasiticidal | decay rate constant (r) (C. parvum; 3× EC90, one-phase exponential decay): 0.05346 | decay rate constant (r) (C. parvum; 12× EC90, one-phase exponential decay): 0.05864 | percentage of host cells infected, extended treatment (C. parvum; day 13 of treatment, 12 × EC90, medium and drug replaced every 3 days): ~0.1% | selectivity index (SI) for C. parvum over five mammalian cell lines [3]: > 20 | plasma MMV665917 levels over time [4]: continued to increase for 9 h | plasma protein binding [5]: 83.3% | plasma protein binding [6]: 88.8% | inhibition of six CYP isoforms [7]: low inhibition | kinetic solubility [8]: 18 µM (≈ 6.44 µg/mL) | hERG inhibition (hERG): 58% | toxicity to zebrafish (zebrafish): not toxic | activity in numerous biological assays (bacteria, protozoa, helminths) [9]: inactive
